In patent publication US20260008770A1, “CBL-B INHIBITORS AND METHODS OF USES THEREOF” (Insilico Medicine IP Limited, priority 2022, published 2026):

biological target: Cbl-b protein (CBL-B, GST-Tag) (Homo sapiens (Human), UniProt Q13191); assay: HTRF based binding assay, affinity to Cbl-b protein; details: not given
Sequence (Q13191 whole entry): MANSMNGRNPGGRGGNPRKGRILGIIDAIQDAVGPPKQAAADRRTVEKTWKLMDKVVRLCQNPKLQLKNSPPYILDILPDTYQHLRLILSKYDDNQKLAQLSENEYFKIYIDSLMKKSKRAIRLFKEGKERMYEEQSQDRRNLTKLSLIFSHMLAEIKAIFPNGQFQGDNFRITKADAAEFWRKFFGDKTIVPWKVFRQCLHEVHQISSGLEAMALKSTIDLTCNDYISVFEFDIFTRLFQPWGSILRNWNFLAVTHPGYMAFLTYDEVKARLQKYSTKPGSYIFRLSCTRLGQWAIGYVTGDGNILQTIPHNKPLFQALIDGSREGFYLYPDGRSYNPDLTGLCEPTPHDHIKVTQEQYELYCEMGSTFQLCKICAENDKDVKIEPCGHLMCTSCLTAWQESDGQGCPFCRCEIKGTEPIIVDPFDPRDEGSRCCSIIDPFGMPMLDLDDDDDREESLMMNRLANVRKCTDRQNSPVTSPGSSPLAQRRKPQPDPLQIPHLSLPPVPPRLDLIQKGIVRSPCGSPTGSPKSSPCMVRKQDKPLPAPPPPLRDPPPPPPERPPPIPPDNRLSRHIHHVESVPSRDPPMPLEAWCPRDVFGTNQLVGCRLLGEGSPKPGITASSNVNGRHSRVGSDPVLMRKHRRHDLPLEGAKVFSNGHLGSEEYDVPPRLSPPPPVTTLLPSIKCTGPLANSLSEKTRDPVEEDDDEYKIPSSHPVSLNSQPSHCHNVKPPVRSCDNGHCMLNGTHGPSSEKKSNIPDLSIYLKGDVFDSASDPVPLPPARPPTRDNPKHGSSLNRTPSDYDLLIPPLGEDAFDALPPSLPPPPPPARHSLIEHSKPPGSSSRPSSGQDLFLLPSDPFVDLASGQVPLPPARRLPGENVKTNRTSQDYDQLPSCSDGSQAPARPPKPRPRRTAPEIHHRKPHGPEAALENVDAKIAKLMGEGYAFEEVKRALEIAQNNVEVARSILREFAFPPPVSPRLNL

**Q.** Which IC50 does the source give for `CC1CC(c2cc(F)nc(-n3cnc4c(C(F)(F)F)cc(CN5CCC[C@H](C)C5)cc4c3=O)c2)(c2nncn2C)C1` (stereo partly drawn) [Example 44] here?
**A.** 0.02 to 0.05 µM

**Q.** Which IC50 does the source give for `Cc1cc(C2(c3nncn3C)CC(C)C2)cc(-n2cnc3c(C(F)(F)F)cc(CN4CCC[C@H](C)C4)cc3c2=O)n1` (stereo partly drawn) [Example 45] here?
**A.** 0.05 to 0.5 µM

**Q.** With `CC1CC(c2ccnc(-n3cnc4c(C(F)(F)F)c(CN5CCC[C@H](C)C5)[nH]c4c3=O)c2)(c2nncn2C)C1` (stereo partly drawn) [Example 46] as the compound, how does the IC50 read?
**A.** 0.05 to 0.5 µM

**Q.** Which IC50 does the source give for `C#Cc1cc(-n2cc3c(C(F)(F)F)cc(CN4CCC[C@H](C)C4)cc3n2)cc(C2(c3nncn3C)CC(C)C2)c1` (stereo partly drawn) [Example 51] here?
**A.** 0.05 to 0.5 µM

**Q.** With `CC1CC(c2cc(C#N)cc(-n3cc4c(C(F)(F)F)cc(CN5CCC[C@H](C)C5)cc4n3)c2)(c2nncn2C)C1` (stereo partly drawn) [Example 53] as the compound, how does the IC50 read?
**A.** 0.05 to 0.5 µM

**Q.** For `CC1CC(c2cncc(-n3ncc4c(C(F)(F)F)cc(CN5CCC[C@H](C)C5)cc4c3=O)c2)(c2nncn2C)C1` (stereo partly drawn) [Example 54], which IC50 is on record?
**A.** 0.05 to 0.5 µM

**Q.** Which IC50 does the source give for `C[C@H]1CCCN(Cc2cc(C(F)(F)F)c3cn(-c4cccc(C5(c6nncn6C)CC(OC(F)F)C5)c4)nc3c2)C1` (stereo partly drawn) [Example 59] here?
**A.** 0.05 to 0.5 µM

**Q.** For `CC1CC(c2cc(CO)cc(-n3cc4c(C(F)(F)F)cc(CN5CCC[C@H](C)C5)cc4n3)c2)(c2nncn2C)C1` (stereo partly drawn) [Example 60], which IC50 is on record?
**A.** 0.05 to 0.5 µM

**Q.** Which IC50 does the source give for `C#C[C@H]1CCCN(Cc2cc(C(F)(F)F)c3ncn(-c4cc([C@]5(c6nncn6C)C[C@@H](C)C5)ccn4)c(=O)c3c2)C1` [Example 61] here?
**A.** 0.02 to 0.05 µM

**Q.** For `C[C@H]1CCCN(Cc2cc3c(=O)n(-c4cccc([C@]5(c6nncn6C)C[C@@H](C)C5)c4)cnc3c(C(F)(F)F)n2)C1` [Example 62], which IC50 is on record?
**A.** 0.02 to 0.05 µM

**Q.** How did the IC50 turn out when `C[C@H]1CCCN(Cc2cc(C(F)(F)F)c3cnn(-c4cc([C@]5(c6nncn6C)C[C@H](C)C5)ccn4)c(=O)c3c2)C1` [Example 65] was run?
**A.** 0.5 to 1 µM

**Q.** Which IC50 does the source give for `C#CCC1CC(c2cccc(-n3cc4c(C(F)(F)F)cc(CN5CCC[C@H](C)C5)cc4n3)c2)(c2nncn2C)C1` (stereo partly drawn) [Example 66] here?
**A.** 0.02 to 0.05 µM

**Q.** For `C[C@H]1CCCN(Cc2cc(C(F)(F)F)c3ncn(-c4cccc(C5(c6nncn6C)CC(=O)C5)c4)c(=O)c3c2)C1` [Example 67], which IC50 is on record?
**A.** 0.05 to 0.5 µM

**Q.** For `C[C@H]1CCCN(Cc2cc(C(F)(F)F)c3cn(-c4cccc(C5(c6nncn6C)CC(=O)C5)c4)nc3c2)C1` [Example 68], which IC50 is on record?
**A.** 0.05 to 0.5 µM

**Q.** Which IC50 does the source give for `C[C@H]1CCCN(Cc2cc(C(F)(F)F)c3cn(-c4cc([C@]5(c6nncn6C)C[C@H](C)C5)ccn4)nc3c2)C1` [Example 71] here?
**A.** 0.05 to 0.5 µM

**Q.** With `CC1CC(c2ccc(F)c(-n3cc4c(C(F)(F)F)cc(CN5CCC[C@H](C)C5)cc4n3)c2)(c2nncn2C)C1` (stereo partly drawn) [Example 72] as the compound, how does the IC50 read?
**A.** 0.02 to 0.05 µM

**Q.** How did the IC50 turn out when `Cn1cnnc1[C@]1(c2cccc(-n3cc4c(C(F)(F)F)cc(CN5CCC[C@H](OC(F)F)C5)cc4n3)c2)C[C@H](C)C1` [Example 74] was run?
**A.** 0.05 to 0.5 µM

**Q.** Which IC50 does the source give for `COCC1CC(c2cccc(-n3cnc4c(C(F)(F)F)cc(CN5CCC[C@H](C)C5)cc4c3=O)c2)(c2nncn2C)C1` (stereo partly drawn) [Example 76] here?
**A.** 0.05 to 0.5 µM

**Q.** For `CC1=CCCN(Cc2cc(C(F)(F)F)c3cn(-c4cccc(C5(c6nncn6C)CC(C)C5)c4)nc3c2)C1` (stereo not drawn) [Example 79], which IC50 is on record?
**A.** 0.02 to 0.05 µM

**Q.** Which IC50 does the source give for `C[C@H]1CCCN(Cc2cc(C(F)(F)F)c3ncn(-c4cccc(C5(Cc6nncn6C)COC5)c4)c(=O)c3c2)C1` [Example 80, (S)-3-(3-(3-((4-methyl-4H-1,2,4-triazol-3-yl)methyl)oxetan-3-yl)phenyl)-6-((3-methylpiperidin-1-yl)methyl)-8-(trifluoromethyl)quinazolin-4(3H)-one] here?
**A.** 0.5 to 1 µM

**Q.** How did the IC50 turn out when `CC1CC(c2cccc(-n3[nH]c(=O)c4c(C(F)(F)F)cc(CN5CCC[C@H](C)C5)cc4c3=O)c2)(c2nncn2C)C1` (stereo partly drawn) [Example 81] was run?
**A.** 0.05 to 0.5 µM

**Q.** `C[C@H]1CCCN(Cc2cc(C(F)(F)F)c3cnn(-c4cccc(C5(c6nncn6C)CC(F)(F)C5)c4)c(=O)c3c2)C1` [Example 83] was tested. Which IC50 did it give?
**A.** 0.05 to 0.5 µM

**Q.** With `CC1CC(c2cccc(-n3cc4c(C(F)(F)F)cc(CN5C[C@@H](C)C[C@H](C)C5)cc4n3)c2)(c2nncn2C)C1` (stereo partly drawn) [Example 86] as the compound, how does the IC50 read?
**A.** 0.05 to 0.5 µM

**Q.** With `C[C@H]1CCCN(Cc2cc(C(F)(F)F)c3cn(-c4cccc(C5(c6nncn6C)CC(F)(F)C5)c4)nc3c2)C1` [Example 87] as the compound, how does the IC50 read?
**A.** 0.02 to 0.05 µM

**Q.** For `CC1CC(c2cccc(-n3cc4c(C(F)(F)F)cc(CN5CCC[C@@](C)(O)C5)cc4n3)c2)(c2nncn2C)C1` (stereo partly drawn) [Example 89], which IC50 is on record?
**A.** 0.05 to 0.5 µM

**Q.** Which IC50 does the source give for `CC1CC(c2cncc(-n3cc4c(C(F)(F)F)cc(CN5CCC[C@H](C)C5)cc4n3)c2)(c2nncn2C)C1` (stereo partly drawn) [Example 91] here?
**A.** 0.02 to 0.05 µM

**Q.** For `C[C@H]1CCCN(Cc2cc(C(F)(F)F)c3cn(-c4cccc([C@]5(c6nncn6C)C[C@@H](OC(F)(F)F)C5)c4)nc3c2)C1` [Example 92], which IC50 is on record?
**A.** 0.05 to 0.5 µM

**Q.** How did the IC50 turn out when `CCc1cc([C@]2(c3nncn3C)C[C@@H](C)C2)cc(-n2cnc3ccc(CN4CCC[C@H](C)C4)cc3c2=O)n1` [Example 93] was run?
**A.** 0.02 to 0.05 µM

same assay, conditions: HTRF binding, CBL-B (GST-Tag), fluorescence labeled Cbl-b binding probe

**Q.** With `CC1CC(c2cc(C3CC3)nc(-n3cnc4c(C(F)(F)F)cc(CN5CCC[C@H](C)C5)cc4c3=O)c2)(c2nncn2C)C1` (stereo partly drawn) [Example 47] as the compound, how does the IC50 read?
**A.** < 0.02 µM

**Q.** For `C[C@H]1CCCN(Cc2cc(C(F)(F)F)c3ncn(-c4cc([C@]5(c6nncn6C(F)F)C[C@@H](C)C5)ccn4)c(=O)c3c2)C1` [Example 48], which IC50 is on record?
**A.** < 0.02 µM

**Q.** For `C=Cc1cc(C2(c3nncn3C)CC(C)C2)cc(-n2cnc3c(C(F)(F)F)cc(CN4CCC[C@H](C)C4)cc3c2=O)n1` (stereo partly drawn) [Example 49], which IC50 is on record?
**A.** < 0.02 µM

**Q.** How did the IC50 turn out when `Cn1cnnc1C(F)C1(c2cccc(-n3cc4c(C(F)(F)F)cc(CN5CCC[C@H](C6CC6)C5)cc4n3)c2)COC1` (stereo partly drawn) [Example 50] was run?
**A.** < 0.02 µM

**Q.** With `CC1CC(c2cc(C(N)=O)cc(-n3cc4c(C(F)(F)F)cc(CN5CCC[C@H](C)C5)cc4n3)c2)(c2nncn2C)C1` (stereo partly drawn) [Example 52] as the compound, how does the IC50 read?
**A.** < 0.02 µM

**Q.** For `C#C[C@H]1CCCN(Cc2cc(C(F)(F)F)c3cn(-c4cccc([C@]5(c6nncn6C)C[C@@H](C)C5)c4)nc3c2)C1` [Example 56], which IC50 is on record?
**A.** < 0.02 µM

**Q.** Which IC50 does the source give for `C[C@H]1CCCN(Cc2cc(C(F)(F)F)c3cn(-c4cccc(C5(C(F)c6nncn6C)COC5)c4)nc3c2)C1` (stereo partly drawn) [Example 57] here?
**A.** < 0.02 µM

**Q.** For `CC1CC(c2cccc(-n3cnc4c(C(F)(F)F)c(CN5CCC[C@H](C)C5)[nH]c4c3=O)c2)(c2nncn2C)C1` (stereo partly drawn) [Example 63], which IC50 is on record?
**A.** < 0.02 µM

**Q.** Which IC50 does the source give for `Cn1cnnc1CC1(c2cccc(-n3cc4c(C(F)(F)F)cc(CN5CCC[C@H](C6CC6)C5)cc4n3)c2)COC1` [Example 64] here?
**A.** < 0.02 µM

**Q.** How did the IC50 turn out when `C#C[C@H]1CCCN(Cc2cc(C(F)(F)F)c3cn(-c4cccc(C5(Cc6nncn6C)COC5)c4)nc3c2)C1` [Example 69] was run?
**A.** < 0.02 µM

**Q.** For `CC1CC(c2cccc(-n3[nH]c4c(C(F)(F)F)cc(CN5CCC[C@H](C)C5)cc4c3=O)c2)(c2nncn2C)C1` (stereo partly drawn) [Example 73], which IC50 is on record?
**A.** > 1 µM

**Q.** Which IC50 does the source give for `C[C@H]1CCCN(Cc2cc(C(F)(F)F)c3cn(-c4cc(C5(Cc6nncn6C)COC5)cc5c4OCC5)nc3c2)C1` [Example 75] here?
**A.** < 0.02 µM

**Q.** Which IC50 does the source give for `CC1CC(c2cncc(-n3ncc4c(C(F)(F)F)cc(CN5CCC[C@H](C)C5)cc4c3=O)c2)(c2nncn2C)C1` (stereo partly drawn) [Example 77] here?
**A.** < 0.02 µM

**Q.** For `C[C@H]1CCCN(Cc2cc(C(F)(F)F)c3ncn(-c4cc([C@]5(c6nncn6C)C[C@@H](C)C5)ccn4)c(=O)c3c2)C1` [Example 78], which IC50 is on record?
**A.** < 0.02 µM

**Q.** `CC1CC(c2cccc(-n3cnc4c(C(F)(F)F)cc(CN5CCC[C@H](C)C5)cc4c3=O)c2)(c2nncn2C)C1` (stereo partly drawn) [Example 84] was tested. Which IC50 did it give?
**A.** < 0.02 µM

**Q.** Which IC50 does the source give for `C[C@H]1CCCN(Cc2cc(C(F)(F)F)c3cn(-c4cccc(C5(Cc6nncn6C)COC5)c4)nc3c2)C1` [Example 88] here?
**A.** < 0.02 µM

**Q.** How did the IC50 turn out when `C[C@H]1CCCN(Cc2cc(C(F)(F)F)c3cn(-c4cccc(C5(c6nncn6C)CC(CC#N)C5)c4)nc3c2)C1` (stereo partly drawn) [Example 90] was run?
**A.** < 0.02 µM
